Columns and labels:
[1] = biological target: LPA2 receptor (Homo sapiens, UniProt Q9HBW0); assay: LPA2R-calciumflux assay; assay type: cell-based; settings: U2OS cells recombinant expressing LPA2R; LPA-induced intracellular calcium signal (FLIPR Tetra); 10 concentrations from 30 uM to 1 nM, 1% DMSO
Description: Description of the LPA2R Assay
Cell Cultivation/Propagation
LPA2R-calciumflux Assay Protocol
The assay detects intra cellular calcium which is generated by cells upon activation of the LPA2 receptor by its ligand LPA. This transient calcium mobilisation can be monitored using a commercial calcium detection kit (e.g. from Molecular Devices). The main component of such a kit is a dye, which becomes fluorescent when calcium is present—a transient fluorescence signal after laddition of a ligand to a test well are the result. Readers like the FLIPR (from Molecular Devices) can be used to monitor such transient “Ca-flux” signals.
The signals are calculated according to peak maximum minus base line. Compounds which are antogonists of LPA lead to a decreased mobilisation of intracellular calcium and thus to a lower signal. The assay is performed in microplates (384 wells per plate).
The assay itself is run according to the following procedure: • 50 uL seed cells (10000 cells/well in DMEM buffer) • Incubate 24 h at 37° C., 10% CO2 • aspirate medium • 50 uL add calcium dye 1×HBSS/HEPES buffer • incubate 1 h at 37° C. (“loading”) • equilibrate 10 min at RT • 5 uL add compounds in HEPES buffer • shake 10 sec. @ 1000 rpm • incubate 15 min at RT • 20 uL add LPA (in the FLIPR Tetra) in KREBS-Puffer/BSA & measurement
The cells are seeded in DMEM buffer (DMEM, 10% FCS, 10 mM HEPES, 1% Pen/Strep).
Dye loading is done in HBSS/HEPES buffer (100 mL 10×HBSS+20 mL 1M HEPES+880 mL water, pH 7.4)
The LPA is added in Krebs/BSA buffer (120 mM NaCl, 5 mM KCl, 0.62 mM MgSO4, 1.8 mM CaCl2, 10 mM HEPES, 6 mM D(+)-Glucose, 0.2% BSA, pH 7.4).
The compounds are pre-diluted in HEPES buffer (20 mM, pH 7.4), whereby the final DMSO content in the assay is kept at 1%. The compounds are pre-diluted in order to generate dose response series on the microplates. The dose response series consist of 10 concentrations for each compound from 30 uM final to 1 nM final. From all compound wells the resulting signals are referred to control wells (located on each plate besides the compound wells) in terms of % activity.
[formula] From these % activity values—along with the corresponding compound concentrations—IC50 values are fitted for each compound using standard fitting programs such as Graphpad Prism. Here the method “log(inhibitor) vs. response—Variable slope” is used. Reader Settings (FLIPR Tetra) • ExcWLength:470—495 • Em.Wlength: 515—575 • Gain: 50 • Exp. Time: 0,4 • Exc.Intensity: 80 • READ with TF • First read interval: 1,00 s • Number of first reads: 240 • Reads before dispense: 10 • Second read interval: 1,00 s • Number of second reads: 0 • Save Images No

[2] = biological target: T1, P2Y10-Gα16 (Homo sapiens, UniProt O00398); settings: induction of Ca2+ transients via P2Y10-Gα16; cited from earlier work
T1 construct: "P2Y10-Gα16"; fused on or other part: The promiscuous G-protein alpha subunit G alpha 16 (GNA15) is fused to the receptor; By the printed name order it probably sits at the C-terminus; It is a coupling handle and not part of the key
T1 sequence (O00398 whole entry, the tested form may be a part): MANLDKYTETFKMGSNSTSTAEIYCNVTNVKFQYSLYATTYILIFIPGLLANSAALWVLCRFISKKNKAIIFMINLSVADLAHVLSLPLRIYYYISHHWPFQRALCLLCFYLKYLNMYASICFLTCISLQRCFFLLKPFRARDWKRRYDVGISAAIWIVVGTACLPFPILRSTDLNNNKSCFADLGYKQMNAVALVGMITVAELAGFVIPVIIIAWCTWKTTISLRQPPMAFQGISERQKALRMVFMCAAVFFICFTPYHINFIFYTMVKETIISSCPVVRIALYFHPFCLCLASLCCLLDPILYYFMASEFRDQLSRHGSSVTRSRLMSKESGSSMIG

Chain of LPA2 receptor (Q9HBW0 whole entry): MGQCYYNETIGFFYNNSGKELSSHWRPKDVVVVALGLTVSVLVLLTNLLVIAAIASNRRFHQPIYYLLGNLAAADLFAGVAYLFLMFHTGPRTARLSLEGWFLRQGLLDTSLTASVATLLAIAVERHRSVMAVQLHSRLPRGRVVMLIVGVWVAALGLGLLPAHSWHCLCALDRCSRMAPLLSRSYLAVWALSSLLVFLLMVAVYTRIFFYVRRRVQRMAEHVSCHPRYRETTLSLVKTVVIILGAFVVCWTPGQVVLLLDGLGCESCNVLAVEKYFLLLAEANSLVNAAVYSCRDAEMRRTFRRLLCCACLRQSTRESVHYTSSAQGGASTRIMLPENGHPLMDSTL

| Molecule | IC50 [1] [µM] | EC50 [2] [µM] |
| --- | --- | --- |
| COc1ccc(-c2n[nH]c3c2C(O)(C(F)(F)F)CC(=O)N3)cc1OC (stereo not shown) [Compound 31, 3-(3,4-Dimethoxy-phenyl)-4-hydroxy-4-trifluoromethyl-1,4,5,7-tetrahydro-pyrazolo[3,4-b]pyridin-6-one] | < 1 |  |
| COc1cccc(-c2n[nH]c3c2C(O)(C(F)(F)F)CC(=O)N3)c1 (stereo not shown) [Compound 32, 4-Hydroxy-3-(3-methoxy-phenyl)-4-trifluoromethyl-1,4,5,7-tetrahydro-pyrazolo[3,4-b]pyridin-6-one] | 1 to 10 |  |
| Cc1c(-c2n[nH]c3c2C(O)(C(F)(F)F)CC(=O)N3)cnn1C (stereo not shown) [Compound 33, 3-(1,5-Dimethyl-1H-pyrazol-4-yl)-4-hydroxy-4-trifluoromethyl-1,4,5,7-tetrahydro-pyrazolo[3,4-b]pyridin-6-one] | 1 to 10 |  |
| CCN1C(=O)CC(O)(C(F)(F)F)c2c(-c3ccccc3)n[nH]c21 (stereo not shown) [Compound 34, 7-Ethyl-4-hydroxy-3-phenyl-4-trifluoromethyl-1,4,5,7-tetrahydro-pyrazolo[3,4-b]pyridin-6-one] | > 10 |  |
| O=C1CC(O)(c2cc(C(F)(F)F)cc(C(F)(F)F)c2)c2c(-c3ccccc3)n[nH]c2N1 (stereo not shown) [Compound 35, 4-(3,5-Bis-trifluoromethyl-phenyl)-4-hydroxy-3-phenyl-1,4,5,7-tetrahydro-pyrazolo[3,4-b]pyridin-6-one] | > 10 |  |
| CCCCCCCCCCCCC/C=C/[C@@H](O)[C@@H](N)COP(=O)(O)O [Compound S1P, sphingosine 1-phosphate] |  | 0.053 |
| Lysophosphatidic acid [LPA] |  | 0.13 |

Reference: patent publication US9067938B2, “Pyrazolopyridinone derivatives as LPA receptor antagonists” (Merck Patent GmbH, priority 2010, dated 2015)
